Here are results for 58 compounds from ChEMBL document CHEMBL5729376, “SSAO inhibitors and use thereof” (2022).

Assay [1] deals with T1, Amine oxidase [flavin-containing] B (Homo sapiens, UniProt P27338).
T1 sequence (P27338 whole entry): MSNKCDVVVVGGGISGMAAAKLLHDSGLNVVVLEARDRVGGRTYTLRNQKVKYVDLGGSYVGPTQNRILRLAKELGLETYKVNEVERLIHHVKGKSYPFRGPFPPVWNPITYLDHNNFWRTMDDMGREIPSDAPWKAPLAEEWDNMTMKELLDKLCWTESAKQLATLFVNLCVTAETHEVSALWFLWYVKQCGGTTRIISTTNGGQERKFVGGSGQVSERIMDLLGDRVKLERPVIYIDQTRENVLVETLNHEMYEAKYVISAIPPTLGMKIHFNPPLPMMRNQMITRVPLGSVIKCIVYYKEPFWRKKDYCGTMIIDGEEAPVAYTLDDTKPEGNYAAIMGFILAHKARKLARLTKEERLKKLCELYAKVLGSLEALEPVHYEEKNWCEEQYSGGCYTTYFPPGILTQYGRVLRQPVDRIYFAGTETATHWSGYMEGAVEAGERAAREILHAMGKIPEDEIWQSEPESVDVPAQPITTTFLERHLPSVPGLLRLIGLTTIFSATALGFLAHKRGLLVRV
The assay can be described thus: (§1) SSAO Activity Assay: Amine oxidase activity of recombinant hSSAO, hMAO-A, and hMAO-B isoforms are measured using the MAO-Glo assay kit (Promega, V1402). Ten nL test compounds (with DMSO as vehicle, 0.1% v/v for hSSAO, hMAO-A and hMAO-B) were added into assay plates by Echo, and pre-incubated with 5 μL of enzyme for 30 mins at room temperature before the addition of 5 μL of luminogenic substrate. The substrate concentration is 40 μM for human recombinant SSAO, 40 μM for human recombinant MAO-A, and 4 μM for human recombinant MAO-B. The hSSAO and hMAO-A assays were conducted in the MAO-A reaction buffer in the kit, and the MAO-B assay was conducted in the MAO-B reaction buffer. Oxidation of the substrate was conducted for 1 hr, before the addition of detecting reagent according the manufacture's protocol. The IC50 value of the tested compounds was calculated by fitting the dose response curve using a 4-parameter non-linear regression routine.

Assay [2] addresses T2, Amine oxidase [flavin-containing] A (Homo sapiens, UniProt P21397).
T2 sequence (P21397 whole entry): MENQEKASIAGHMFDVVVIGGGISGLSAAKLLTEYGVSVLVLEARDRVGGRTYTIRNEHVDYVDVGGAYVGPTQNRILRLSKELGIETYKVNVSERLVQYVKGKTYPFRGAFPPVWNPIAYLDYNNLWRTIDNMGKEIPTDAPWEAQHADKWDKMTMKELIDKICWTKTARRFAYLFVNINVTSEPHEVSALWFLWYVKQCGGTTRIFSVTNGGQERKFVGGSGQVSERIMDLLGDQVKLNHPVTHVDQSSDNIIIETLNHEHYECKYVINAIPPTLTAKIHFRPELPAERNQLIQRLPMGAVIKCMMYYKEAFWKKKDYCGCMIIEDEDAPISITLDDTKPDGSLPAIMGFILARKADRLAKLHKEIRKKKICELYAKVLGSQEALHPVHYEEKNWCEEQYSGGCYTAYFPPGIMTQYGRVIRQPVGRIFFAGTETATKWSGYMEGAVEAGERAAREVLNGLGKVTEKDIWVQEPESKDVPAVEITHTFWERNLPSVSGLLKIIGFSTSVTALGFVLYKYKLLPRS
The description is as §1.

Consider `CC(C)C(=O)N1CCC(CS(=O)(=O)c2ccc(OC/C(=C/F)CN)cc2)C1` (configuration not stated), for which the half-inhibitory concentration (IC50) in assay [1] is greater than 30 µM.
As for `NC/C(=C\F)COc1ccc(S(=O)(=O)C[C@@H]2CCCO2)cc1`, the IC50 is less than 10 µM in assay [1] and greater than 30 µM in assay [2].
For the compound `NC/C(=C\F)COc1ccc(S(=O)(=O)CC23CCC(C(=O)NC4CCC4)(CC2)CC3)cc1`, in assay [2], the concentration for half-maximal inhibition (IC50) was greater than 30 µM.
For `CC(C)n1nc(CS(=O)(=O)c2ccc(OC/C(=C/F)CN)cc2)ccc1=O`, the IC50 was less than 10 µM in assay [1] and greater than 30 µM in assay [2].
With `NC/C(=C\F)COc1ccc(S(=O)(=O)CC23CC(C(=O)NC4CCC4)(C2)C3)cc1`, the half-inhibitory concentration (IC50) is less than 10 µM in assay [1] and greater than 30 µM in assay [2].
For `N#CC1(COCS(=O)(=O)c2ccc(OC/C(=C/F)CN)cc2)CCOCC1` the same measures were greater than 30 µM and greater than 30 µM.
As for `CCN(CC(C)CS(=O)(=O)c1ccc(OC/C(=C/F)CN)cc1)C(=O)C(C)C` (configuration not stated), the IC50 in assay [1] and in assay [2] was greater than 30 µM each time.
For the compound `CC1(C(=O)N2CCN(CS(=O)(=O)c3ccc(OC/C(=C/F)CN)cc3)C(=O)C2)CCC1`, the IC50 in assay [1] is less than 10 µM.
As to `C[C@@H](CN1CCCC1=O)CS(=O)(=O)c1ccc(OC/C(=C/F)CN)cc1`, the IC50 in assay [1] and in assay [2] was greater than 30 µM in each case.
For the compound `CC(C)N1CCN(CS(=O)(=O)c2ccc(OC/C(=C/F)CN)cc2)C(=O)C1`, the IC50 in assay [1] and in assay [2] was greater than 30 µM throughout.
On to `NC/C(=C\F)COc1ccc(S(=O)(=O)CC2CCOCC2)c(F)c1`, for which the 50% inhibitory concentration (IC50) in assay [1] and in assay [2] was less than 10 µM throughout.
As for `NC/C(=C\F)COc1ccc(S(=O)(=O)COCC2CCN(C(=O)C3(C(F)(F)F)CC3)CC2)cc1`, the IC50 in assay [2] is greater than 30 µM.
Turning to `CC(C)n1ccc(CS(=O)(=O)c2ccc(OC/C(=C/F)CN)cc2)cc1=O`, the results for the IC50 in assay [1] and in assay [2] were less than 10 µM and greater than 30 µM, respectively.
`CC1(COCS(=O)(=O)c2ccc(OC/C(=C/F)CN)cc2)CCN(C(=O)C(C)(C)C)CC1`: the IC50 in assay [1] was less than 10 µM; in assay [2] it was greater than 30 µM.
In the case of `NC/C(=C\F)COc1ccc(S(=O)(=O)CC23CCC(C(=O)N4CCC(F)(F)CC4)(CC2)CC3)cc1`, the half-inhibitory concentration (IC50) in assay [1] and in assay [2] was greater than 30 µM throughout.
For `C[C@@H](CN1CCOCC1)CS(=O)(=O)c1ccc(OC/C(=C/F)CN)cc1`, the IC50 in assay [1] and in assay [2] was greater than 30 µM in each case.
Turning to `C[C@H](CN1CCCC1=O)CS(=O)(=O)c1ccc(OC/C(=C/F)CN)cc1`, the IC50 in assay [1] and in assay [2] was greater than 30 µM throughout.
For `CC1(COCS(=O)(=O)c2ccc(OC/C(=C/F)CN)cc2)CCOCC1`, the IC50 in assay [1] is less than 10 µM; in assay [2], greater than 30 µM.
As for `COCS(=O)(=O)c1ccc(OC/C(=C/F)CN)cc1`, the concentration for half-maximal inhibition (IC50) in assay [2] was greater than 30 µM.
`NC/C(=C\F)COc1ccc(S(=O)(=O)CC2CCN(C(=O)C34CC(F)(C3)C4)CC2)cc1`: the IC50 in assay [1] was less than 10 µM.
With `NC/C(=C\F)COc1ccc(S(=O)(=O)CC2CCOCC2)cc1`, the IC50 in assay [1] is less than 10 µM; in assay [2], greater than 30 µM.
For the compound `NC/C(=C\F)COc1ccc(S(=O)(=O)CC23CCC(C4(O)CC4)(CC2)CC3)cc1`, the half-inhibitory concentration (IC50) in assay [2] is greater than 30 µM.
As to `NC/C(=C\F)COc1ccc(S(=O)(=O)Cc2ccc(C(=O)N3CCCC3)cc2)cc1`, the IC50 in assay [1] and in assay [2] was greater than 30 µM each time.
`CC(C)(CN1CCOCC1)CS(=O)(=O)c1ccc(OC/C(=C/F)CN)cc1`: the IC50 in assay [1] and in assay [2] was greater than 30 µM in each case.
On to `NC/C(=C\F)COc1ccc(S(=O)(=O)COC2CCN(C(=O)C3CCCC3)CC2)cc1`, for which the IC50 in assay [1] and in assay [2] was greater than 30 µM throughout.
Regarding `NC/C(=C\F)COc1ccc(S(=O)(=O)CC23CCC(NC(=O)CC(F)(F)F)(CC2)CC3)cc1`, the IC50 in assay [1] and in assay [2] was greater than 30 µM throughout.
Turning to `NC/C(=C\F)COc1ccc(S(=O)(=O)Cc2ccc(C(=O)NC3CCC3)c(C(F)(F)F)c2)cc1`, the IC50 in assay [2] is greater than 30 µM.
Regarding `CC(C)C(=O)N1CC(CS(=O)(=O)c2ccc(OC/C(=C/F)CN)cc2)C1`, the IC50 in assay [1] was less than 10 µM; in assay [2] it was greater than 30 µM.
As for `NC/C(=C\F)COc1ccc(S(=O)(=O)CC23CCC(C4(NC(=O)C5CC5)CC4)(CC2)CC3)cc1`, the 50% inhibitory concentration (IC50) in assay [1] and in assay [2] was greater than 30 µM in each case.
On to `N#CC1(CS(=O)(=O)c2ccc(OC/C(=C/F)CN)cc2)CCOCC1`, for which the IC50 in assay [1] is less than 10 µM.
Consider `NC/C(=C\F)COc1ccc(S(=O)(=O)CC2CCN(C(=O)c3ccc(F)cc3)CC2)cc1`, for which the IC50 in assay [1] and in assay [2] was less than 10 µM in each case.
Regarding `NC/C(=C\F)COc1ccc(S(=O)(=O)CN2CCCC2=O)cc1`, the IC50 in assay [1] and in assay [2] was greater than 30 µM in each case.
As for `CC(C)C(=O)N1CCC(C)(COCS(=O)(=O)c2ccc(OC/C(=C/F)CN)cc2)CC1`, the results for the IC50 in assay [1] and in assay [2] were less than 10 µM and greater than 30 µM, respectively.
For `CC1CCN(C23CCC(CS(=O)(=O)c4ccc(OC/C(=C/F)CN)cc4)(CC2)CC3)C1=O` (configuration not stated), the IC50 in assay [2] is greater than 30 µM.
For the compound `C[C@H](CN1CCCCC1=O)CS(=O)(=O)c1ccc(OC/C(=C/F)CN)cc1`, the IC50 in assay [1] and in assay [2] was greater than 30 µM in each case.
Turning to `C[C@@H](CS(=O)(=O)c1ccc(OC/C(=C/F)CN)cc1)N1CCCCC1=O`, the IC50 in assay [1] is less than 10 µM; in assay [2], greater than 30 µM.
For `NC/C(=C\F)COc1ccc(S(=O)(=O)Cn2ccccc2=O)cc1` the same measures were less than 10 µM and greater than 30 µM.
As to `CN(C(=O)C1CC1)C12CCC(CS(=O)(=O)c3ccc(OC/C(=C/F)CN)cc3)(CC1)CC2`, the IC50 in assay [1] and in assay [2] was greater than 30 µM throughout.
Consider `C[C@H](CN1CCOCC1)CS(=O)(=O)c1ccc(OC/C(=C/F)CN)cc1`, for which the IC50 in assay [1] and in assay [2] was greater than 30 µM throughout.
With `C[C@@H](CN1CCCCC1=O)CS(=O)(=O)c1ccc(OC/C(=C/F)CN)cc1`, the IC50 in assay [1] and in assay [2] was greater than 30 µM in each case.
On to `NC/C(=C\F)COc1ccc(S(=O)(=O)C[C@H]2CC[C@H](NC(=O)C3CC3)CC2)cc1`, for which the IC50 in assay [1] is less than 10 µM; in assay [2], greater than 30 µM.
For `NC/C(=C\F)COc1ccc(S(=O)(=O)CC2(CN3CCCCC3=O)CC2)cc1`, the IC50 in assay [1] and in assay [2] was greater than 30 µM each time.
On to `N#CC12CCC(CS(=O)(=O)c3ccc(OC/C(=C/F)CN)cc3)(CC1)CC2`, for which the results for the IC50 in assay [1] and in assay [2] were less than 10 µM and greater than 30 µM, respectively.
The corresponding values for `COC1(CS(=O)(=O)c2ccc(OC/C(=C/F)CN)cc2)CCOCC1` are less than 10 µM and greater than 30 µM.
In the case of `CC1(CS(=O)(=O)c2ccc(OC/C(=C/F)CN)cc2)CCN(C(=O)C2(C)CC2)CC1`, in assay [1], the IC50 is less than 10 µM.
As for `NC/C(=C\F)COc1ccc(S(=O)(=O)CC2CCCN(C(=O)C3CCCC3)C2)cc1` (configuration not stated), the IC50 in assay [1] was greater than 30 µM; in assay [2], 10 to 30 µM.
Turning to `CC(C)C(=O)Nc1ccc(CS(=O)(=O)c2ccc(OC/C(=C/F)CN)cc2)cc1`, the 50% inhibitory concentration (IC50) in assay [1] was less than 10 µM; in assay [2] it was greater than 30 µM.
On to `NC/C(=C\F)COc1ccc(S(=O)(=O)C[C@H]2CC[C@@H](O)CC2)cc1`, for which the IC50 in assay [1] and in assay [2] was less than 10 µM in each case.
Turning to `NC/C(=C\F)COc1ccc(S(=O)(=O)CC23CCC(O)(CC2)CC3)cc1`, the IC50 in assay [2] was greater than 30 µM.
Consider `NC/C(=C\F)COc1ccc(S(=O)(=O)CC2CCN(C(=O)C3CC3)CC2)c(Cl)c1`, for which the IC50 in assay [1] and in assay [2] was greater than 30 µM each time.
On to `NC/C(=C\F)COc1ccc(S(=O)(=O)CC2(O)CCOCC2)cc1`, for which the IC50 in assay [1] was less than 10 µM; in assay [2], greater than 30 µM.
On to `NC/C(=C\F)COc1ccc(S(=O)(=O)CC2CCOCC2)c(Cl)c1`, for which the concentration for half-maximal inhibition (IC50) in assay [1] is less than 10 µM.
As for `NC/C(=C\F)COc1ccc(S(=O)(=O)CC23CCC(NC(=O)C4CC4)(CC2)CC3)cc1`, the IC50 in assay [2] was greater than 30 µM.
Regarding `CN(C)C(=O)C12CCC(CS(=O)(=O)c3ccc(OC/C(=C/F)CN)cc3)(CC1)CC2`, the IC50 in assay [2] was greater than 30 µM.
For the compound `CCN(CC(C)(C)CS(=O)(=O)c1ccc(OC/C(=C/F)CN)cc1)C(=O)C(C)C`, the IC50 in assay [2] is greater than 30 µM.
`CC(C)(C)C(=O)NC12CCC(CS(=O)(=O)c3ccc(OC/C(=C/F)CN)cc3)(CC1)C2`: in assay [2], the IC50 was less than 10 µM.
`CC(C)(C)C(=O)N1CCN(CS(=O)(=O)c2ccc(OC/C(=C/F)CN)cc2)C(=O)C1`: the IC50 in assay [1] is less than 10 µM.
On to `CC(C)C(=O)N(C)CC(C)(C)CS(=O)(=O)c1ccc(OC/C(=C/F)CN)cc1`, for which the IC50 in assay [2] was greater than 30 µM.

Usually IC50 stands for the concentration at which inhibition is half-maximal.
